Assay: solvent given as SMILES

Clc1ccc(-c2ccc(Cl)c(Cl)c2)cc1Cl
Conditions	solvation free energy, 298 K [kcal/mol]
in O	-3.62

C=C1CCC23C(C)CCC(C(C)C)C2C13 (configuration not stated)
Conditions	solvation free energy, 298 K [kcal/mol]
in O	0.63

CCF
Conditions	solvation free energy, 298 K [kcal/mol]
in C1CCOC1	-1.79
in CCCCCCC	-1.45
in CN1CCCC1=O	-1.86
in CN(C)C=O	-1.95
in O	0.41

CCC=O
Conditions	solvation free energy, 298 K [kcal/mol]
in C1CCOC1	-3.82
in C=CCCCCCCCCCCCCCC	-2.47
in CC(C)CCCC(C)CCCC(C)CCCCC(C)CCCC(C)CCCC(C)C	-2.57
in CCC(C)=O	-3.85
in CCCCCCCC	-2.54
in CCCCCCCCCCCCCCCC	-2.41
in CCCCCCCCO	-4.15
in NC=O	-3.26
in O	-3.35
in [2H]O[2H]	-3.31

[N-]=[N+]=O
Conditions	solvation free energy, 298 K [kcal/mol]
in CC(C)=O	-1.05
in CC(C)CC(C)(C)C	-0.69
in CC(C)O	-0.48
in CCC(C)=O	-0.94
in CCCCCC	-0.74
in CCCCCCC	-0.65
in CCCCCCCC	-0.6
in CCCCCCCCCC	-0.49
in CCCCCCCCCCO	-0.55
in CCCCCCCCO	-0.45
in CCCCCCO	-0.49
in CCCCCO	-0.5
in CCCCO	-0.55
in CCCCOC(C)=O	-0.98
in CCCO	-0.59
in CCO	-0.61
in CO	-0.69
in COC(C)=O	-1.09
in ClC(Cl)(Cl)Cl	-0.86
in ClC(Cl)Cl	-0.97
in Clc1ccccc1	-0.68
in O	0.31

CCCOC(=O)CCC
Conditions	solvation free energy, 298 K [kcal/mol]
in O	-2.28

CC(=O)CC(=O)C(C)(C)C
Conditions	solvation free energy, 298 K [kcal/mol]
in O	-5.12

C=C(C)C1CCC(C)C2=C(C1)C(C)CC2 (configuration not stated)
Conditions	solvation free energy, 298 K [kcal/mol]
in O	-0.01

ClCCCl
Conditions	solvation free energy, 298 K [kcal/mol]
in Brc1cccc2ccccc12	-4.18
in C1CCOC1	-5.01
in C1COCCO1	-4.98
in CC(=O)CC(C)C	-4.68
in CC(=O)N(C)C	-5.01
in CC(=O)OCc1ccccc1	-4.59
in CC(C)OC(C)C	-3.88
in CCC(C)=O	-4.79
in CCCCCC	-3.75
in CCCCCCC	-3.7
in CCCCCCCC	-3.7
in CCCCCCCCCCCCCC	-3.49
in CCCCCCCCCCCCCCCC	-3.52
in CCCCCCCCN(CCCCCCCC)CCCCCCCC	-3.6
in CCCCCCCCO	-3.78
in CCCCCN(CCCCC)CCCCC	-3.76
in CCCCCl	-4.42
in CCCCN(C=O)CCCC	-4.62
in CCCCN(CCCC)CCCC	-3.65
in CCCCO	-3.98
in CCCCOCCCC	-4.16
in CCO	-4.03
in CCOC(C)=O	-4.72
in CCOCC	-4.45
in CNC(C)=O	-4.45
in COC(=O)OC	-4.73
in COC(C)(C)C	-4.35
in Cc1ccc(C)cc1	-4.41
in Cc1cccc(C)c1	-4.45
in Cc1ccccc1C	-4.42
in ClC(Cl)(Cl)Cl	-4.3
in ClC(Cl)Cl	-4.69
in O	-1.79
in [2H]O[2H]	-1.89
in c1ccc2ncccc2c1	-4.54
in c1ccccc1	-4.68

CC(C)C(C)(C)C
Conditions	solvation free energy, 298 K [kcal/mol]
in C=CCCCCCCCCCCCCCC	-3.77
in CN1CCCC1=O	-2.78
in O	2.62

c1ccc2c(c1)-c1cccc3cccc-2c13
Conditions	solvation free energy, 298 K [kcal/mol]
in C1COCCO1	-13
in CC(=O)N(C)C	-13.2
in CC(C)CC(C)(C)C	-11.2
in CC(C)CC(C)O	-11.2
in CC(C)CCO	-11.2
in CC(C)CO	-11.1
in CC(C)O	-11.1
in CCC(C)(C)O	-11.3
in CCC(C)O	-11.2
in CCCC(C)CO	-11.4
in CCCC(C)O	-11.4
in CCCCC(CC)CO	-11.5
in CCCCCC	-11.5
in CCCCCCC	-11.6
in CCCCCCCC	-11.6
in CCCCCCCCC=CCCCCCCCC(=O)OCC(COC(=O)CCCCCCCC=CCCCCCCCC)OC(=O)CCCCCCCC=CCCCCCCCC	-12.2
in CCCCCCCCCC	-11.7
in CCCCCCCCO	-11.8
in CCCCCCCO	-11.9
in CCCCCCO	-11.7
in CCCCCO	-11.6
in CCCCCl	-12.8
in CCCCO	-11.5
in CCCCOC(C)=O	-12.7
in CCCCOCCCC	-12.1
in CCCO	-11.3
in CCO	-11.4
in CCOC(C)=O	-12.7
in CCOCC	-12.4
in CN(C)C=O	-13.2
in CO	-11.2
in COC(C)(C)C	-12.2
in ClC(Cl)(Cl)Cl	-12.7
in ClC(Cl)Cl	-13
in ClCCCl	-13
in O	-4.69

O=c1cc(-c2ccc(O)c(O)c2)oc2cc(O)cc(O)c12
Conditions	solvation free energy, 298 K [kcal/mol]
in CC(C)O	-25.4
in CCCCO	-25.2
in CCCO	-25.5
in CCO	-25.5

O=C(OC1CCCCCC1)c1ccccc1C(=O)OC1CCCCCC1
Conditions	solvation free energy, 298 K [kcal/mol]
in O	-8.87

— the CombiSolv-Exp solvation set (Vermeire and Green 2021)
